Source: patent USRE48461E1, “Modulation of androgen receptor expression” (Ionis Pharmaceuticals, Inc., priority 2012, dated 2021)
l = locked nucleic acid (LNA); d = 2'-deoxy (DNA)

What was measured:
[1] = test system: prostate-specific antigen (PSA) mRNA; experiment: PSA mRNA levels in LMR20 cells; assay type: cell-based, human; conditions: LMR20 cells; for PSA mRNA levels (% baseline value) after treatment with DHT: DHT 10 nM 72 hrs; for PSA mRNA levels (% baseline value) after treatment with R1881: R1881 10 nM 72 hrs; for PSA mRNA levels (% baseline value) of cells without AR agonist treatment: no AR agonist
Procedure: LMR20 cells were plated at 1,500 cells per well in phenol red-free medium with CSS. […] Results are presented in Tables 43-45 as mRNA levels expressed as a percentage of the baseline values. mRNA levels may be lowered or increased after treatment.

total AR mRNA = experiment: Total (full-length) AR mRNA in C4-2B MR cells, free uptake; assay type: cell-based, human; conditions: free uptake, 24 hrs
Procedure: Cells were plated at a density of 40,000 cells per well in 96-well plates and cultured in RPMI1640 medium with 10% fetal bovine serum. […] ISIS 549372, ISIS 549458, ISIS 549434, and ISIS 554221 were each added at 0.04 μM, 0.20 μM, 1.00 μM, and 5.00 μM concentrations of antisense oligonucleotide to culture media for free uptake by the cells. […] After a treatment period of 24 hrs, total AR mRNA levels were measured by quantitative real-time PCR using primer probe set RTS3559.

C4-2B MR cells = experiment: Proliferation of MDV3100-resistant C4-2B cells (CellTiter 96); assay type: cell-based, human; conditions: 6 days
Procedure: ISIS 549372, ISIS 549434, ISIS 549458, and ISIS 554221 were each added to the culture media at 0.04 μM, 0.20 μM, 1.00 μM, and 5.00 μM concentration of antisense oligonucleotide. ISIS 347526 was included as a negative control. After a treatment period of 6 days, the proliferative capacity of the cancer cells was measured with using CellTiter 96® AQueous One Solution Cell Proliferation kit (Promega), following the manufacturer's instructions. Results are presented in Table 41 as percent inhibition of proliferation, relative to non-treated cells.

TMPRSS2 mRNA = TMPRSS2 mRNA levels in LMR20 cells; assay type: cell-based, human; conditions: LMR20 cells; for TMPRSS2 mRNA levels (% baseline value) after treatment with DHT: DHT 10 nM 72 hrs; for TMPRSS2 mRNA levels (% baseline value) after treatment with R1881: R1881 10 nM 72 hrs; for TMPRSS2 mRNA levels (% baseline value) of cells without AR agonist treatment: no AR agonist
Procedure: (§1) LMR20 cells were plated at 1,500 cells per well in phenol red-free medium with CSS.

KLK2 mRNA = KLK2 mRNA (AR target gene) in C4-2B MR cells; assay type: cell-based, human
KLK3 mRNA = KLK3 mRNA (AR target gene) in C4-2B MR cells; assay type: cell-based, human
AR mRNA [2] = experiment: AR mRNA levels in LMR20 cells (with/without DHT or R1881); assay type: cell-based, human; conditions: LMR20 cells; for AR mRNA levels (% baseline value) after treatment with DHT: DHT 10 nM 72 hrs; for AR mRNA levels (% baseline value) after treatment with R1881: R1881 10 nM 72 hrs; for AR mRNA levels (% baseline value) of cells without AR agonist treatment: no AR agonist
Procedure: as §1

AR mRNA [3] = experiment: AR mRNA in LnCaP cells by free uptake (hAR_LTS00943); assay type: cell-based, human; conditions: 24 hrs
Procedure: Cells were plated at a concentration of 4,000 cells/well in 96-well plates. ISIS oligonucleotides, specified in Table 68, were added individually at 0.02 μM, 0.10 μM, 0.50 μM, 2.50 μM, or 10.00 μM. After an incubation period of 24 hrs, mRNA levels were measured using primer probe set hAR_LTS00943.

[4] = cynomolgus monkey, in vivo, sc, 40 mg/kg
Procedure: The monkeys were 2-4 years old and weighed between 2 and 4 kg. Thirteen groups of four randomly assigned male cynomolgus monkeys each were injected subcutaneously with ISIS oligonucleotide or PBS. PBS solution or ISIS oligonucleotides, at a dose of 40 mg/kg, were administered with a loading regimen consisting of four doses on the first week of the study (days 1, 3, 5, and 7), followed by a maintenance regimen consisting of once weekly administration starting on Day 14 (weeks 2 to 6). Subcutaneous injections were performed in clock-wise rotations at 4 sites on the back; one site per dose. The injection sites were delineated by tattoo, while sedated using ketamine, and were separated by a minimum of 3 cm.
To evaluate any inflammatory effect of ISIS oligonucleotides in cynomolgus monkeys, the monkeys were fasted overnight. Approximately, 1.5 mL of blood samples were collected from all the study groups on day 44. Blood was collected in tubes without anticoagulant for serum separation. The tubes were kept at room temperature for a minimum of 90 min and then centrifuged at 3,000 rpm for 10 min. C-reactive protein (CRP), which is synthesized in the liver and which serves as a marker of inflammation, was measured on day 43 using a Toshiba 120FR NEO chemistry analyzer (Toshiba Co., Japan). Complement C3 was also measured similarly, and the data is presented as a percentage of baseline values.

[5] = cynomolgus monkey, in vivo, sc, 40 mg/kg; remark: listed apart in the source
[6] = cynomolgus monkey, in vivo, sc, 40 mg/kg; remark: listed apart in the source
[7] = cynomolgus monkey, in vivo, sc, 40 mg/kg; remark: listed apart in the source
Procedure: (§2) Prior to the study, the monkeys were kept in quarantine for a 30-day period, during which the animals were observed daily for general health. The monkeys were 2-4 years old and weighed between 2 and 4 kg. Thirteen groups of four randomly assigned male cynomolgus monkeys each were injected subcutaneously with ISIS oligonucleotide or PBS. PBS solution or ISIS oligonucleotides, at a dose of 40 mg/kg, were administered with a loading regimen consisting of four doses on the first week of the study (days 1, 3, 5, and 7), followed by a maintenance regimen consisting of once weekly administration starting on Day 14 (weeks 2 to 6). Subcutaneous injections were performed in clock-wise rotations at 4 sites on the back; one site per dose. The injection sites were delineated by tattoo, while sedated using ketamine, and were separated by a minimum of 3 cm.
To evaluate the effect of ISIS oligonucleotides on kidney function, the monkeys were fasted overnight. Approximately, 1.5 mL of blood samples were collected from all the study groups on day 44. Blood was collected in tubes without anticoagulant for serum separation. The tubes were kept at room temperature for a minimum of 90 min and then centrifuged at 3,000 rpm for 10 min. Levels of BUN and creatinine were measured using a Toshiba 120FR NEO chemistry analyzer (Toshiba Co., Japan).

[8] = cynomolgus monkey, in vivo, sc, 40 mg/kg; remark: listed apart in the source
Procedure: as §2
To evaluate the effect of ISIS oligonucleotides on the overall health of the animals, body and organ weights were measured.

Substance: 554221 (ACCAAGTTTCTTCAGC; sugars from the 5' end l3 d10 l3, all phosphorothioate, methylation of C not given here) [compound 554221]
- PSA mRNA levels (% baseline value) after treatment with DHT ([1]; ASO 0.04 μM): 97 % baseline value
- PSA mRNA levels (% baseline value) after treatment with DHT ([1]; ASO 0.20 μM): 86 % baseline value
- PSA mRNA levels (% baseline value) after treatment with DHT ([1]; ASO 1.0 μM): 64 % baseline value
- PSA mRNA levels (% baseline value) after treatment with DHT ([1]; ASO 5.0 μM): 64 % baseline value
- PSA mRNA levels (% baseline value) after treatment with R1881 ([1]; ASO 0.04 μM): 100 % baseline value
- PSA mRNA levels (% baseline value) after treatment with R1881 ([1]; ASO 0.20 μM): 93 % baseline value
- PSA mRNA levels (% baseline value) after treatment with R1881 ([1]; ASO 1.0 μM): 80 % baseline value
- PSA mRNA levels (% baseline value) after treatment with R1881 ([1]; ASO 5.0 μM): 57 % baseline value
- PSA mRNA levels (% baseline value) of cells without AR agonist treatment ([1]; ASO 0.04 μM): 106 % baseline value
- PSA mRNA levels (% baseline value) of cells without AR agonist treatment ([1]; ASO 0.20 μM): 118 % baseline value
- PSA mRNA levels (% baseline value) of cells without AR agonist treatment ([1]; ASO 1.0 μM): 58 % baseline value
- PSA mRNA levels (% baseline value) of cells without AR agonist treatment ([1]; ASO 5.0 μM): 87 % baseline value
- Percent inhibition of full-length AR mRNA in C4-2B MR cells (total AR mRNA; 0.04 μM): 0%
- Percent inhibition of full-length AR mRNA in C4-2B MR cells (total AR mRNA; 0.20 μM): 0%
- Percent inhibition of full-length AR mRNA in C4-2B MR cells (total AR mRNA; 1.00 μM): 0%
- Percent inhibition of full-length AR mRNA in C4-2B MR cells (total AR mRNA; 5.00 μM): 23%
- Percent inhibition of C4-2B MR cell proliferation (C4-2B MR cells; 0.04 μM): 11%
- Percent inhibition of C4-2B MR cell proliferation (C4-2B MR cells; 0.20 μM): 12%
- Percent inhibition of C4-2B MR cell proliferation (C4-2B MR cells; 1.00 μM): 0%
- Percent inhibition of C4-2B MR cell proliferation (C4-2B MR cells; 5.00 μM): 24%
- TMPRSS2 mRNA levels (% baseline value) after treatment with DHT (TMPRSS2 mRNA; ASO 0.04 μM): 121 % baseline value
- TMPRSS2 mRNA levels (% baseline value) after treatment with DHT (TMPRSS2 mRNA; ASO 0.20 μM): 118 % baseline value
- TMPRSS2 mRNA levels (% baseline value) after treatment with DHT (TMPRSS2 mRNA; ASO 1.0 μM): 122 % baseline value
- TMPRSS2 mRNA levels (% baseline value) after treatment with DHT (TMPRSS2 mRNA; ASO 5.0 μM): 114 % baseline value
- TMPRSS2 mRNA levels (% baseline value) after treatment with R1881 (TMPRSS2 mRNA; ASO 0.04 μM): 136 % baseline value
- TMPRSS2 mRNA levels (% baseline value) after treatment with R1881 (TMPRSS2 mRNA; ASO 0.20 μM): 134 % baseline value
- TMPRSS2 mRNA levels (% baseline value) after treatment with R1881 (TMPRSS2 mRNA; ASO 1.0 μM): 125 % baseline value
- TMPRSS2 mRNA levels (% baseline value) after treatment with R1881 (TMPRSS2 mRNA; ASO 5.0 μM): 122 % baseline value
- TMPRSS2 mRNA levels (% baseline value) of cells without AR agonist treatment (TMPRSS2 mRNA; ASO 0.04 μM): 95 % baseline value
- TMPRSS2 mRNA levels (% baseline value) of cells without AR agonist treatment (TMPRSS2 mRNA; ASO 0.20 μM): 117 % baseline value
- TMPRSS2 mRNA levels (% baseline value) of cells without AR agonist treatment (TMPRSS2 mRNA; ASO 1.0 μM): 77 % baseline value
- TMPRSS2 mRNA levels (% baseline value) of cells without AR agonist treatment (TMPRSS2 mRNA; ASO 5.0 μM): 73 % baseline value
- Percent inhibition of KLK2 mRNA in C4-2B MR cells (KLK2 mRNA; 0.04 μM): 24%
- Percent inhibition of KLK2 mRNA in C4-2B MR cells (KLK2 mRNA; 0.20 μM): 25%
- Percent inhibition of KLK2 mRNA in C4-2B MR cells (KLK2 mRNA; 1.00 μM): 56%
- Percent inhibition of KLK2 mRNA in C4-2B MR cells (KLK2 mRNA; 5.00 μM): 66%
- Percent inhibition of KLK3 mRNA in C4-2B MR cells (KLK3 mRNA; 0.04 μM): 0%
- Percent inhibition of KLK3 mRNA in C4-2B MR cells (KLK3 mRNA; 0.20 μM): 0%
- Percent inhibition of KLK3 mRNA in C4-2B MR cells (KLK3 mRNA; 1.00 μM): 47%
- Percent inhibition of KLK3 mRNA in C4-2B MR cells (KLK3 mRNA; 5.00 μM): 56%
- AR mRNA levels (% baseline value) after treatment with DHT (AR mRNA [2]; ASO 0.04 μM): 137 % baseline value
- AR mRNA levels (% baseline value) after treatment with DHT (AR mRNA [2]; ASO 0.20 μM): 135 % baseline value
- AR mRNA levels (% baseline value) after treatment with DHT (AR mRNA [2]; ASO 1.0 μM): 136 % baseline value
- AR mRNA levels (% baseline value) after treatment with DHT (AR mRNA [2]; ASO 5.0 μM): 100 % baseline value
- AR mRNA levels (% baseline value) after treatment with R1881 (AR mRNA [2]; ASO 0.04 μM): 131 % baseline value
- AR mRNA levels (% baseline value) after treatment with R1881 (AR mRNA [2]; ASO 0.20 μM): 133 % baseline value
- AR mRNA levels (% baseline value) after treatment with R1881 (AR mRNA [2]; ASO 1.0 μM): 124 % baseline value
- AR mRNA levels (% baseline value) after treatment with R1881 (AR mRNA [2]; ASO 5.0 μM): 99 % baseline value
- AR mRNA levels (% baseline value) of cells without AR agonist treatment (AR mRNA [2]; ASO 0.04 μM): 124 % baseline value
- AR mRNA levels (% baseline value) of cells without AR agonist treatment (AR mRNA [2]; ASO 0.20 μM): 140 % baseline value
- AR mRNA levels (% baseline value) of cells without AR agonist treatment (AR mRNA [2]; ASO 1.0 μM): 132 % baseline value
- AR mRNA levels (% baseline value) of cells without AR agonist treatment (AR mRNA [2]; ASO 5.0 μM): 98 % baseline value
- Percent inhibition of AR mRNA (AR mRNA [3]; 0.02 μM): 0%
- Percent inhibition of AR mRNA (AR mRNA [3]; 0.1 μM): 0%
- Percent inhibition of AR mRNA (AR mRNA [3]; 0.5 μM): 0%
- Percent inhibition of AR mRNA (AR mRNA [3]; 10 μM): 17%

Substance: TGATTTAATGGTTGCA [ISIS 569213] (cEt/MOE gapmer chemistry, further chemistry not given here)
- C3 (% of baseline) [4]: 60 % of baseline
- CRP [4]: 2.8 mg/dL
- ALT [5]: 47 IU/L
- AST [5]: 80 IU/L
- Albumin [5]: 3.7 g/dL
- HCT [6]: 42%
- Hemoglobin [6]: 12.5 g/dL
- Platelets [6]: 426000 µL
- RBC [6]: 5.6e+06 µL
- WBC [6]: 12900 µL
- Plasma BUN [7]: 29.4 mg/dL
- Plasma Creatinine [7]: 0.91 mg/dL
- Body Wt [8]: 2.4 kg
- Heart weight [8]: 8.3 g
- Kidney weight [8]: 16 g
- Liver weight [8]: 69 g
- Mesenteric lymph nodes weight [8]: 2.4 g
- Spleen weight [8]: 5.3 g
